This is an account of results in paper PMC9919951, “Ellagic Acid and Its Metabolites as Potent and Selective Allosteric Inhibitors of Liver Pyruvate Kinase” (Nutrients, 2023).

A word on the EC50: it is the midpoint of the concentration-response curve. In general, IC50 refers to the concentration that inhibits the measured activity by half. Low readings indicate higher potency, high ones lower potency. For orientation: melting point means the temperature of the solid-liquid transition.

“Also recorded” adds a separate entry of the source.

The target of one series is PKM2 (Homo sapiens, UniProt P14618). As to the kind of experiment: In vitro pyruvate kinase assay, PKM2. Format: biochemical. The conditions noted are these: printed in the PKM2 IC50 column; footnote a: value refers to EC50; read-out: PKM2 EC50 (compound behaves as an activator). The source says:
(§1) In the absence of the compound, the intensity (Ce) in each data set was defined as 100% activity.

The target of another series is T1, PKL (Homo sapiens, UniProt P30613).
T1 construct: purchased BPS Bioscience
Kind of series: In vitro pyruvate kinase assay (Kinase-Glo Max luminescence), PKL. In kind it is biochemical. Particulars: for Change of PKL inhibitory activity relative to Uro D (5): removal of one hydroxyl group from 5; for PKL IC50: 0.1 mM ADP, 0.125 mM PEP, rt 30 min, Inactive = less than 30% inhibition at 10 µM.
Text: as §1

For another series, the target named is PKM1 (Homo sapiens, UniProt P14618). Kind of series: In vitro pyruvate kinase assay, PKM1. Format: biochemical.
Text: as §1

The next series concerns the target T2, PKR (Homo sapiens, UniProt P30613).
T2 construct: purchased BPS Bioscience
Kind of series: In vitro pyruvate kinase assay (Kinase-Glo Max luminescence), PKR. In kind it is biochemical. The conditions noted are these: for PKR IC50: 0.1 mM ADP, 0.125 mM PEP, rt 30 min, Inactive = less than 30% inhibition at 10 µM.
Text: as §1
(In general: In Kinase-Glo more light means more ATP remaining.)

Sequence of PKM2 (P14618 whole entry): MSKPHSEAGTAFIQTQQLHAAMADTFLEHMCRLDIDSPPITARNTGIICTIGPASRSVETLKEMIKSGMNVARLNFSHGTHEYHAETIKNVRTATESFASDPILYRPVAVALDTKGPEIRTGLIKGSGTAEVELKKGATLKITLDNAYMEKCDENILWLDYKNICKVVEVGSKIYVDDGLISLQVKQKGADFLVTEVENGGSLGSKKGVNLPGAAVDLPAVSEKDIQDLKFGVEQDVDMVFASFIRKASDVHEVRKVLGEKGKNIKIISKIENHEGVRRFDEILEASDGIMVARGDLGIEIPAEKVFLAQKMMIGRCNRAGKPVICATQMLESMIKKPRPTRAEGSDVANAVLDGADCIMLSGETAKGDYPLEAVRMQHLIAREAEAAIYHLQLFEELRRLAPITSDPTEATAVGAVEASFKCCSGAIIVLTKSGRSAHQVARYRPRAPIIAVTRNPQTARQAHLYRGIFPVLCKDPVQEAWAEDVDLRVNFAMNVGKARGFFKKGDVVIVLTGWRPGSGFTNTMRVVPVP
Sequence of PKM1 (P14618 1-531 isoform P14618-2): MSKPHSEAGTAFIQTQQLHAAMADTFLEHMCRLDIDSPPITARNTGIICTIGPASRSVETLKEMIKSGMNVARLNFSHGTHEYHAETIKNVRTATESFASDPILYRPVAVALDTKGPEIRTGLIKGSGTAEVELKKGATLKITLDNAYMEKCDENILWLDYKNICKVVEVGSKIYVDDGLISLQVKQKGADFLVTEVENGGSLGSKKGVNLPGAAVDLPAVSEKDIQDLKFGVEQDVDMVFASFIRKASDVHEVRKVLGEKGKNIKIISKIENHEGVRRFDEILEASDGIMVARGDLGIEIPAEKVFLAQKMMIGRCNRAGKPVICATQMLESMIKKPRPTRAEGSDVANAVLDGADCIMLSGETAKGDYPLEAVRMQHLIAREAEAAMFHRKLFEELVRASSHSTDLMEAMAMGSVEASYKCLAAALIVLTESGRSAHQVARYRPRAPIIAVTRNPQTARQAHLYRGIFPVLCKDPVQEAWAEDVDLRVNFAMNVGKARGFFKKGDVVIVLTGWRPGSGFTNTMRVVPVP
T2 sequence (P30613 whole entry): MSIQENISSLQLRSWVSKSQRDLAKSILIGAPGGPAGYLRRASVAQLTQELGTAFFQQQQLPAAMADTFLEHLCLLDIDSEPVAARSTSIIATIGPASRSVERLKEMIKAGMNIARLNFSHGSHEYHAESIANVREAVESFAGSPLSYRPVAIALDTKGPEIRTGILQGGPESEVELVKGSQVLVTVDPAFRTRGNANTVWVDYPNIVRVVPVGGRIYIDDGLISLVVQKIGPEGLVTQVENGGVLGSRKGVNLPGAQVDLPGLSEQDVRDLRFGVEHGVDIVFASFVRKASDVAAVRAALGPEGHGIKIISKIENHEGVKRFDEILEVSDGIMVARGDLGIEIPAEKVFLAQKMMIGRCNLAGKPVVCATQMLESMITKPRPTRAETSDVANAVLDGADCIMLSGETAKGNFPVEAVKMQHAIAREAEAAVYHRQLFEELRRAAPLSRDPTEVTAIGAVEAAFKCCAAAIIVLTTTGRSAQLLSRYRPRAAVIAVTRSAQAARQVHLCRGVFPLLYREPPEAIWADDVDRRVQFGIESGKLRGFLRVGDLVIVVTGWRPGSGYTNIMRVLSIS
T1 sequence (P30613 1-543 isoform P30613-2): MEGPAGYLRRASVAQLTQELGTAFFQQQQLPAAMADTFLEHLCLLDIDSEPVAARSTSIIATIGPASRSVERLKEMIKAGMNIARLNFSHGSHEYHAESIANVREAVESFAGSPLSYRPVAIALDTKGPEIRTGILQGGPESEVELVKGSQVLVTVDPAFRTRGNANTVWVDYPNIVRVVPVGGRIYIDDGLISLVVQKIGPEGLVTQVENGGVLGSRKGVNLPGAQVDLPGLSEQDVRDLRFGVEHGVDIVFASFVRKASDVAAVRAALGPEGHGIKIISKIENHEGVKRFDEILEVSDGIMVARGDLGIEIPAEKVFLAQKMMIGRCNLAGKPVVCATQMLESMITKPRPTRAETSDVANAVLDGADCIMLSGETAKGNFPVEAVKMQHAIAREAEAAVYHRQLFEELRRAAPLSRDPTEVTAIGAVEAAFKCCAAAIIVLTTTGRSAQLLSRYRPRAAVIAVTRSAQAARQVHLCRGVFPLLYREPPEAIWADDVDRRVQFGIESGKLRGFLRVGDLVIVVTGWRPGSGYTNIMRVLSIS

In the case of `O=c1oc2c(O)c(O)ccc2c2cc(O)c(O)cc12` [Compound 5, urolithin D], the EC50 at PKM2 is 30 nM. Also, the IC50 was determined as 28 nM against PKL, 36000 nM at PKM1 and 1270 nM on PKR.

Regarding `O=c1oc2c(O)cccc2c2cc(O)c(O)cc12` [Compound 13, 4,8,9-Trihydroxy-6H-benzo[c]chromen-6-one], the melting point lay in the range of 345 to 347 °C. Also, at PKL, 3900 nM corresponded to half-maximal inhibition (IC50) and the “Change of PKL inhibitory activity relative to Uro D (5)” value is given as “hundred-fold reduction in activity”. The same molecule registered an IC50 against PKR of 43000 nM.

As for `O=c1oc2c(O)c(O)cc3c(=O)oc4c(O)c(O)cc1c4c23` [Compound 1, ellagic acid], at PKM2, the EC50 was determined as 70 nM. The IC50 at PKL was 32 nM; at PKM1, 81000 nM; against PKR it was 4700 nM. For the same molecule, the “Mode of PKL inhibition” value on PKL (different concentrations of ADP, activity independent of substrate concentration) is “non-competitive allosteric inhibitor”.

For the molecule `O=c1cc(-c2ccc(O)c(O)c2)oc2cc(O)cc(O)c12` [Compound 2, luteolin], the results for the IC50 at PKL and against PKR were 12000 nM and over 100000 nM, respectively.

Regarding `O=c1occc2cc(O)c(O)cc12` [Compound 6, 6,7-dihydroxy-1H-isochromen-1-one], the melting point is 265 to 267 °C. Besides, at PKL, the “PKL IC50” value is reported as “Inactive ^b”. For the same molecule, the “PKR IC50” value on PKR is “Inactive ^b”.

`Oc1ccc(-c2ccc(O)c(O)c2O)c(O)c1O` [Compound 8, [1,1’-Biphenyl]-2,2’,3,3’,4,4’-hexaol] displayed a melting point of over 350 °C. Further, at PKL, the IC50 worked out at 3500 nM. For the same molecule, the IC50 on PKR was determined as 12000 nM.

Turning to `Oc1cc(O)c2cc(O)c(-c3ccc(O)c(O)c3)[o+]c2c1` [Compound 3, cyanidin], the IC50 worked out at 2100 nM against PKL and 7400 nM at PKR.

Turning to `O=c1oc2cc(O)ccc2c2ccc(O)cc12` [Compound 11, Urolithin A], the “PKL IC50” value at PKL is given as “no inhibition was observed; also recorded: Inactive ^b”. Further, the “PKR IC50” value at PKR was “Inactive ^b”.

Regarding `O=c1oc2c(O)c(O)ccc2c2ccc(O)cc12` [Compound 15, 3,4,8-Trihydroxy-6H-benzo[c]chromen-6-one], on PKL, the IC50 was 1700 nM and the “Change of PKL inhibitory activity relative to Uro D (5)” value is “dramatically reduced inhibitory activity”. The molecule further showed an IC50 at PKR of over 100000 nM.

Take `O=c1oc2c(O)c(O)ccc2c2cc(O)ccc12` [Compound 14, 3,4,9-Trihydroxy-6H-benzo[c]chromen-6-one]: the IC50 at PKL worked out at 2100 nM; against PKR, 68000 nM.

With `O=c1oc2cc(O)ccc2c2cc(O)c(O)cc12` [Compound 10, 3,8,9-trihydroxy-6H-benzo[c]chromen-6-one], on PKL, 410 nM corresponded to half-maximal inhibition (IC50) and the “Change of PKL inhibitory activity relative to Uro D (5)” value is listed as “reduced by approximately one order of magnitude”. Besides, the IC50 at PKR was 2600 nM.

Regarding `O=C(COP(=O)(O)O)[C@@H](O)[C@H](O)[C@H](O)COP(=O)(O)O` [FBP, Fructose-1,6-biphosphate, reference compound], the half-maximal effective concentration (EC50) at PKM2 came out at 50 nM; on PKL (printed in the PKL IC50 column, footnote a: value refers to EC50, read-out: PKL EC50 (compound behaves as an activator)), 20 nM; at PKR (printed in the PKR IC50 column, footnote a: value refers to EC50, read-out: PKR EC50 (compound behaves as an activator)), 10 nM. In addition, on PKM1, the “PKM1 IC50” value is on record as “Inactive”.

On to `O=c1ccc2ccc(O)c(O)c2o1` [Compound 7], for which the “PKL IC50” value on PKL is on record as “Inactive ^b”. The “PKR IC50” value at PKR is reported as “Inactive ^b”.

In the case of `O=c1oc2cc(O)ccc2c2ccccc12` [Compound 12, Urolithin B], the “PKL IC50” value on PKL is recorded as “no inhibition was observed; also recorded: Inactive ^b”. The “PKR IC50” value on PKR is on record as “Inactive ^b”.

On to `Oc1ccc(-c2ccc(O)c(O)c2)cc1O` [Compound 9, [1,1’-biphenyl]-3,3’,4,4’-tetraol], for which the IC50 at PKL came to 2400 nM; on PKR, 5100 nM.
